Laboratory results from paper PMC9502202, “Discovery of Novel Potential Aphid Repellents: Geranic Acid Esters Containing Substituted Aromatic Rings” (Molecules, 2022).

The compounds below were run on Acyrthosiphon pisum (A. pisum) (assay: Repellent activity test, glass two-way olfactometer). Settings: 0.25 h, wingless A. pisum, 2.5 µL of 2000 mg/L test solution in n-hexane on filter paper, 15 min, RP = (C − T)/(C + T) × 100%, mean ± standard deviation, read-out: RP (%) repellency proportion.
Type: in vivo
Protocol: The behavioral response of A. pisum to 5a-5x was investigated with a glass two-way olfactometer, and the aphid-repellent activity was carried out according to our previously published method. The aphids were reared in a growth chamber (at 23 ± 1 °C, with a […]:8D photoperiod and 70% relative humidity) at China Agricultural University. The compounds were weighed, dissolved in n-hexane, and prepared into a test solution with a concentration of 2000 mg/L using n-hexane as a blank control. About 20 wingless A. pisum were placed through the release port and each arm was pumped with 0.2 L/min of activated carbon and distilled water. One arm was chosen as the “treatment” (T) arm and another was the “control” (C) arm. For the “T” arm, 2.5 μL of test solutions were applied to filter paper strips (1 cm^2 diameter), and 2.5 μL of n-hexane was applied for the “C” arm. The number of aphids in each direction was recorded for 15 min at 2 cm from the center of the horizontal arm. The olfactometer was washed with ethanol, the filter paper was replaced, and the two arms were switched and the experiment was repeated four times for each treatment. The repellent activity was evaluated using RP as the formula RP = (C - T)/(C+T) × 100%, where T and C mean the number of aphids in the treatment and control arm, respectively. The RP values of the derivatives were statistically analyzed with SPSS 24.0 (SPSS Inc., Chicago, IL, USA) using a one-way analysis of variance (ANOVA), followed by a Duncan's test with a significance set at p < 0.05.

Q: Which pest or weed control at 2000 µg/mL does the source give for `CC(C)=CCC/C(C)=C/C(=O)Oc1ccccc1` [5a] here?
A: 38.1 ± 2.38%

Q: `CC(C)=CCC/C(C)=C/C(=O)Oc1ccccc1C` [5b, 2-tolyl (E)-3,7-dimethylocta-2,6-dienoate] was tested. Which pest or weed control at 2000 µg/mL did it give?
A: 35.2 ± 2.65%

Q: Which pest or weed control at 2000 µg/mL does the source give for `CC(C)=CCC/C(C)=C/C(=O)Oc1cccc(C)c1` [5c, 3-tolyl (E)-3,7-dimethylocta-2,6-dienoate] here?
A: 39.8 ± 1.95%

Q: How did the pest or weed control at 2000 µg/mL turn out when `CC(C)=CCC/C(C)=C/C(=O)Oc1ccc(C)cc1` [5d, 4-tolyl (E)-3,7-dimethylocta-2,6-dienoate] was run?
A: 38.7 ± 2.75%

Q: `COc1ccccc1OC(=O)/C=C(\C)CCC=C(C)C` [5e, 2-methoxyphenyl (E)-3,7-dimethylocta-2,6-dienoate] was tested. Which pest or weed control at 2000 µg/mL did it give?
A: 37.4 ± 2.08%

Q: For `COc1cccc(OC(=O)/C=C(\C)CCC=C(C)C)c1` [5f, 3-methoxyphenyl (E)-3,7-dimethylocta-2,6-dienoate], which pest or weed control at 2000 µg/mL is on record?
A: 55.6%

Q: Which pest or weed control at 2000 µg/mL does the source give for `COc1ccc(OC(=O)/C=C(\C)CCC=C(C)C)cc1` [5g, 4-methoxyphenyl (E)-3,7-dimethylocta-2,6-dienoate] here?
A: 43.6 ± 3.09%

Q: For `CC(C)=CCC/C(C)=C/C(=O)Oc1ccccc1Cl` [5h, 2-chlorophenyl (E)-3,7-dimethylocta-2,6-dienoate], which pest or weed control at 2000 µg/mL is on record?
A: 31.8 ± 1.31%

Q: Which pest or weed control at 2000 µg/mL does the source give for `CC(C)=CCC/C(C)=C/C(=O)Oc1cccc(Cl)c1` [5i, 3-chlorophenyl (E)-3,7-dimethylocta-2,6-dienoate] here?
A: 51.4 ± 1.2%

Q: For `CC(C)=CCC/C(C)=C/C(=O)Oc1ccc(Cl)cc1` [5j, 4-chlorophenyl (E)-3,7-dimethylocta-2,6-dienoate], which pest or weed control at 2000 µg/mL is on record?
A: 38.7 ± 2.75%

Q: How did the pest or weed control at 2000 µg/mL turn out when `CC(C)=CCC/C(C)=C/C(=O)Oc1ccccc1F` [5k, 2-fluorophenyl (E)-3,7-dimethylocta-2,6-dienoate] was run?
A: 28.8 ± 1.31%

Q: `CC(C)=CCC/C(C)=C/C(=O)Oc1cccc(F)c1` [5l, 3-fluorophenyl (E)-3,7-dimethylocta-2,6-dienoate] was tested. Which pest or weed control at 2000 µg/mL did it give?
A: 34.9 ± 3.3%

Q: How did the pest or weed control at 2000 µg/mL turn out when `CC(C)=CCC/C(C)=C/C(=O)Oc1ccc(F)cc1` [5m, 4-fluorophenyl (E)-3,7-dimethylocta-2,6-dienoate] was run?
A: 27.9 ± 2.85%

Q: How did the pest or weed control at 2000 µg/mL turn out when `CC(C)=CCC/C(C)=C/C(=O)Oc1ccccc1[N+](=O)[O-]` [5n, 2-nitrophenyl (E)-3,7-dimethylocta-2,6-dienoate] was run?
A: 23.4 ± 2.35%

Q: `CC(C)=CCC/C(C)=C/C(=O)Oc1cccc([N+](=O)[O-])c1` [5o, 3-nitrophenyl (E)-3,7-dimethylocta-2,6-dienoate] was tested. Which pest or weed control at 2000 µg/mL did it give?
A: 41.5 ± 1.49%

Q: How did the pest or weed control at 2000 µg/mL turn out when `CC(C)=CCC/C(C)=C/C(=O)Oc1ccc([N+](=O)[O-])cc1` [5p, 4-nitrophenyl (E)-3,7-dimethylocta-2,6-dienoate] was run?
A: 39.8 ± 1.95%

Q: With `CC(C)=CCC/C(C)=C/C(=O)Oc1ccccc1Br` [5q, 2-bromophenyl (E)-3,7-dimethylocta-2,6-dienoate] as the compound, how does the pest or weed control at 2000 µg/mL read?
A: 42.7 ± 1.36%

Q: With `CC(C)=CCC/C(C)=C/C(=O)Oc1cccc(Br)c1` [5r, 3-bromophenyl (E)-3,7-dimethylocta-2,6-dienoate] as the compound, how does the pest or weed control at 2000 µg/mL read?
A: 51.2 ± 1.94%

Q: How did the pest or weed control at 2000 µg/mL turn out when `CC(C)=CCC/C(C)=C/C(=O)Oc1ccc(Br)cc1` [5s, 4-bromophenyl (E)-3,7-dimethylocta-2,6-dienoate] was run?
A: 43.4%

Q: `CC(C)=CCC/C(C)=C/C(=O)Oc1ccccc1OC(F)(F)F` [5t, 2-(trifluoromethoxy)phenyl (E)-3,7-dimethylocta-2,6-dienoate] was tested. Which pest or weed control at 2000 µg/mL did it give?
A: 28.2 ± 1.55%

Q: `CC(C)=CCC/C(C)=C/C(=O)Oc1cccc(OC(F)(F)F)c1` [5u, 3-(trifluoromethoxy)phenyl (E)-3,7-dimethylocta-2,6-dienoate] was tested. Which pest or weed control at 2000 µg/mL did it give?
A: 38 ± 2.54%

Q: For `CC(C)=CCC/C(C)=C/C(=O)Oc1ccc(OC(F)(F)F)cc1` [5v, 4-(trifluoromethoxy)phenyl (E)-3,7-dimethylocta-2,6-dienoate], which pest or weed control at 2000 µg/mL is on record?
A: 24.9 ± 2.52%

Q: How did the pest or weed control at 2000 µg/mL turn out when `CC(C)=CCC/C(C)=C/C(=O)Oc1c(F)cccc1F` [5w, 2,6-difluorophenyl (E)-3,7-dimethylocta-2,6-dienoate] was run?
A: 36.7%

Q: For `CC(C)=CCC/C(C)=C/C(=O)Oc1c(Br)cccc1Br` [5x, 2,6-dibromophenyl (E)-3,7-dimethylocta-2,6-dienoate], which pest or weed control at 2000 µg/mL is on record?
A: 43.9 ± 2.09%

Q: `CC(C)=CCC/C(C)=C/COC(=O)c1ccc(Br)cc1` [CAU14, reference compound] was tested. Which pest or weed control at 2000 µg/mL did it give?
A: 33.5%

Q: `CC(C)=CCC/C(C)=C/COC(=O)c1c(F)cccc1F` [CAU15, reference compound] was tested. Which pest or weed control at 2000 µg/mL did it give?
A: 18.3%
